Measurements published in patent US10039733B2, “Compositions, method, and kits for treating pulmonary conditions” (NuSirt Sciences, Inc., priority 2013, dated 2018).

Columns and labels:
eotaxin = eotaxin secretion from MLEC (ELISA); format: cell-based, mouse; settings: MLEC treated directly; theophylline 1 μM, leucine 0.5 mM, resveratrol 200 nM; FIG. 5
Description: (§1) Interleukin 1-β, eotaxin, and interleukin 6 were all measured via enzyme-linked immunosorbent assay using specific antibodies for each cytokine (Abcam, Cambridge, Mass.) and a horseradish peroxidase-based second antibody detection system, with chromogenic detection at 450 nm using a microplate reader (Synergy HT, BioTek Instruments, Winooski, Vt.).

IL1-β = IL1-β secretion from MLEC (ELISA); format: cell-based, mouse; settings: MLEC treated directly; theophylline 1 μM, leucine 0.5 mM, resveratrol 200 nM; FIG. 4
Description: as §1

IL 6 [1] = assay: IL 6 secretion from MLEC (ELISA); format: cell-based, mouse; settings: positive control, FIG. 8
Experimental: (§2) Cells were grown in Dulbecco's modified eagle's medium (DMEM) containing a growth factor supplement (Cell Biologics #M1 166) which included 5% fetal bovine serum (FBS), heparin, EGF, hydrocortisone, L-glutamine and antibiotics at 37° C. in 5% CO2.
as §1
(§3) Following treatment, western blots or ELISA assays were performed on the MLEC to determine the level of various indicators of airway diseases, such as NFκB protein expression, eotaxin secretion, IL1-β secretion, cellular IL6 content or secretion, adiponectin receptor 1 protein expression, and adiponectin receptor 2 protein expression.

IL 6 [2] = assay: cellular IL 6 content in MLEC (ELISA); format: cell-based, mouse; settings: MLEC treated directly; theophylline 1 μM, leucine 0.5 mM, resveratrol 200 nM; FIG. 7
Experimental: as §2, §1, §3

NFκB = NFκB protein expression by Western blot in directly treated MLEC; settings: theophylline 1 μM, leucine 0.5 mM, resveratrol 200 nM, FIG. 1
[3] = system: OVA-induced asthmatic mice; assay: BALF cellularity by flow cytometry in OVA-induced asthma; format: in vivo, Balb/c mice; settings: theophylline 10 mg/kg IP, baseline 12 g leucine diet
Experimental: The interactive effects of leucine and theophylline was evaluated in sixty young adult female Balb/c mice that were randomized to the following six groups (n=10/group):
Group 1 was an untreated control group that was administered a diet containing a baseline level of leucine at 12 g of leucine/day.
Group 2 was a positive control group that was administered dexamethasone via IP injection and a diet containing a baseline level of leucine at 12 g of leucine/day.
Group 3 was administered a diet containing a high level of leucine (diet containing leucine at 12 g/day for days 0-13 and 24 g/day beginning on day 14) and no theophylline or dexamethasone.
Group 4 was administered sub-therapeutic level of theophylline (1 mg/kg theophylline, 10% of therapeutic level) via IP injection and a high leucine diet (diet containing leucine at 12 g/day for days 0-13 and 24 g/day beginning on day 14). […]
Animals were sacrificed on day 28, subjected to bronchial alveolar lavage and the lavage fluid (BALF, 2 mL) and lungs collected. Airway inflammation was evaluated by assessing cellularity of BALF via flow cytometer; parameters used for cellular differentiation were sized granularity, autofluorescence and the expression of the following markers: CD45, Gr-1, CD11b, CCR3, B220 and CD3. […]

| Molecule | eotaxin secretion into the media (eotaxin) | IL1-β secretion (IL1-β) | IL 6 secretion (IL 6 [1]) | cellular expression of IL 6 (IL 6 [2]) | NFκB protein expression relative to control (NFκB) | eosinophil number in BALF ([3]; FIG. 15) | T-cell number in BALF ([3]; trend not significant (0.05<p<0.1), FIG. 16) |
| --- | --- | --- | --- | --- | --- | --- | --- |
| TNFα | no significant effect | significant increase | significant increase | – | – | – | – |
| Cn1c(=O)c2[nH]cnc2n(C)c1=O [theophylline] | – | no significant independent effect | – | unaffected | no independent effect | modest significant decreases | modestly reduced |
